Experimental data from patent US20070243137A1, “Cell and sub-cell methods for imaging and therapy” (priority 2006, published 2007).
“And” between values parts separate entries of the source, which are not always exact repeats. Equal values may be shown once.

Experiments:
[1] = in vivo; cited from earlier work
[2] = MRI imaging (1.5 Tesla, T1) of rat bearing subcutaneous F98 glioma tumor after intravenous injection; type: in vivo
Experimental: A male rat bearing a subcutaneous F98 glioma tumor in its thigh was anesthetized and a catheter inserted into the femoral vein. The animal was then placed in a 1.5 Tesla clinical MRI scanner with a head coil around it. T1 images were acquired before injection. The sample in example 2 was used without further purification, and an amount was injected, corresponding to a dose of 0.1 mmol Gd/kg, which is the recommended dose/weight for gadodiamide use in vivo. Images were acquired using both T1 and T2 modes. […] For comparison, a rat bearing a similar tumor was injected with 0.1 mmol gadodiamide/kg. […] Many of the smaller vesicles filtered through the kidneys, since at 30 min post injection not only was contrast seen in the urine in the bladder (as also seen with the gadodiamide only preparation), but high contrast was seen on the surface of the urine in the bladder. This may be explained by the lower density of the lipid-containing vesicles, allowing them to float on the surface. […] It should be noted that whatever the fate of the contrast agent is, only an FDA approved standard amount was injected, and should not cause any toxic effects.

[3] = abdominal aorta, 10 min after injection
[4] = hepatic portal vein, 10 min after injection
[5] = inferior vena cava, 10 min after injection

Q: For `O=C([O-])CN(CCN(CC(=O)[O-])CC(=O)O)CCN(CC(=O)[O-])CC(=O)O.[Gd+3]` [Gd-DTPA, gadolinium diethytriaminepentaacetic acid], which blood half-life [1] is on record?
A: ~20 min

Q: For `CNC(=O)CN(CCN(CCN(CC(=O)[O-])CC(=O)NC)CC(=O)[O-])CC(=O)[O-].[Gd+3]` [gadodiamide, Gadolinium diethylenetriaminepentaacetic acid bismethyl-amide], which blood half-life [1] is on record?
A: ~20 min

Q: And the “maximal tumor contrast relative to rat given vesicle-loaded gadodiamide” value ([2]; 0.1 mmol gadodiamide/kg, rat with similar tumor)?
A: approximately one-half

Q: And the “After injection (HU), tumor” value ([2]; F98 glioma tumor in thigh, 10 min after i.v. injection, 0.1 mmol Gd/kg)?
A: 828±82 HU and 828 HU

Q: And the “After injection (HU), Abdominal Aorta” value ([2]; abdominal aorta, 10 min after i.v. injection, 0.1 mmol Gd/kg)?
A: 627±76 HU and 627 HU

Q: And the “Contrast change (HU), Abdominal Aorta” value [2, 3]?
A: 9 HU

Q: And the “Percent change, Abdominal Aorta” value [2, 3]?
A: 1%

Q: What about the “After injection (HU), Heart” value ([2]; heart, 10 min after i.v. injection, 0.1 mmol Gd/kg, T1) of the same compound?
A: 540±137 HU and 540 HU

Q: And the “Contrast change (HU), Heart” value ([2]; heart, 10 min after injection)?
A: 91 HU

Q: What about the “Percent change, Heart” value ([2]; heart, 10 min after injection) of the same compound?
A: 20%

Q: What about the “After injection (HU), hepatic portal vein” value ([2]; hepatic portal vein, 10 min after i.v. injection, 0.1 mmol Gd/kg) of the same compound?
A: 774±47 HU and 774 HU

Q: And the “Contrast change (HU), hepatic portal vein” value [2, 4]?
A: 96 HU

Q: What about the “Percent change, hepatic portal vein” value [2, 4] of the same compound?
A: 14%

Q: And the “After injection (HU), Inferior vena cava” value ([2]; inferior vena cava, 10 min after i.v. injection, 0.1 mmol Gd/kg)?
A: 770±49 HU and 770 HU

Q: What about the “Contrast change (HU), Inferior vena cava” value [2, 5] of the same compound?
A: 10 HU

Q: What about the “Percent change, Inferior vena cava” value [2, 5] of the same compound?
A: 1%

Q: And the “After injection (HU), Kidney” value ([2]; kidney, 10 min after i.v. injection, 0.1 mmol Gd/kg)?
A: 1411±136 HU and 1411 HU

Q: And the “Contrast change (HU), Kidney” value ([2]; kidney, 10 min after injection)?
A: 848 HU

Q: What about the “Percent change, Kidney” value ([2]; kidney, 10 min after injection) of the same compound?
A: 151%

Q: And the “After injection (HU), Liver” value ([2]; liver, 10 min after i.v. injection, 0.1 mmol Gd/kg)?
A: 831±27 HU and 804±58 HU and 831 HU

Q: What about the “Contrast change (HU), Liver” value ([2]; liver, 10 min after injection) of the same compound?
A: 16 HU

Q: And the “Percent change, Liver” value ([2]; liver, 10 min after injection)?
A: 2%

Q: And the “vascular contrast in T1 mode” value ([2]; minutes after injection up to 20 minutes or more, 0.1 mmol/kg)?
A: not significantly contrasted

Q: What about the “Contrast change (HU), tumor” value ([2]; tumor, 10 min after injection) of the same compound?
A: 321 HU

Q: What about the “Percent change, tumor” value ([2]; tumor, 10 min after injection) of the same compound?
A: 63%
